Measured values from paper PMC6173509, “C-3- and C-4-Substituted Bicyclic Coumarin Sulfamates as Potent Steroid Sulfatase Inhibitors” (ACS Omega, 2018).

Legend:
[1] = design: method as in PMID 18288656, PMID 18288656, PMID 24604234; details: rats; ref 12a, 12b, 14; cited from earlier work
[2] = rodent; cited from earlier work
steroid sulfatase (STS) [3] = biological target: T1, steroid sulfatase (STS) (Homo sapiens, UniProt P08842); design: endogenous in cells; host or cells: MCF-7 breast cancer cells; details: cited from earlier work
T1 sequence (P08842 22-583): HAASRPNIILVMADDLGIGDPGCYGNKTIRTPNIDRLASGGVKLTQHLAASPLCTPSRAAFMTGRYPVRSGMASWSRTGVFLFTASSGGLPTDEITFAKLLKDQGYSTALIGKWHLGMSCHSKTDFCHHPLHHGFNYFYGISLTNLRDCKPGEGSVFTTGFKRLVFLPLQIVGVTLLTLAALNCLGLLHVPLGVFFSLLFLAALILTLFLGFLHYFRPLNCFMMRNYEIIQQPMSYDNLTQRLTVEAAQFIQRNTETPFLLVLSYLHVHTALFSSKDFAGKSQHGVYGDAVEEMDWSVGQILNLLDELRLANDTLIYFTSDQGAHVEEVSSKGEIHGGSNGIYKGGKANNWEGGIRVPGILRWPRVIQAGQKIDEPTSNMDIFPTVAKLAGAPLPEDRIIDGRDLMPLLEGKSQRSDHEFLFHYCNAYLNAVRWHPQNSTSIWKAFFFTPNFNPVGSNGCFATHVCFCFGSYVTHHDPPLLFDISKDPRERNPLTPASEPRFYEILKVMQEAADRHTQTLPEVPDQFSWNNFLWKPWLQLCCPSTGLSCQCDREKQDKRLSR

steroid sulfatase (STS) [4] = biological target: T1, steroid sulfatase (STS); design: a placental microsomal preparation from a sulfatase-positive human placenta from a normal term pregnancy; from tissue; host or cells: human placenta (microsomal preparation); details: cited from earlier work; for % Inhibition of STS Activity in Placental Microsomes at 0.1 μM: 0.1 μM inhibitor; for % Inhibition of STS Activity in Placental Microsomes at 1 μM: 1 μM inhibitor; for % Inhibition of STS Activity in Placental Microsomes at 10 μM: 10 μM inhibitor
steroid sulfatase (STS) [5] = biological target: T1, steroid sulfatase (STS); experiment: STS inhibition in intact MCF-7 breast cancer cells; type: cell-based; design: endogenous in cells; host or cells: MCF-7 breast cancer cells; details: for IC50: 3 nM E1S; for inhibition at 0.01 µM: MCF7, read-out: % Inhibition of STS Activity in Intact MCF-7 Breast Cancer Cells at 0.01 μM; for inhibition at 0.1 µM: MCF7, read-out: % Inhibition of STS Activity in Intact MCF-7 Breast Cancer Cells at 0.1 μM; for inhibition at 1 µM: MCF7, read-out: % Inhibition of STS Activity in Intact MCF-7 Breast Cancer Cells at 1 μM; for inhibition at 10 µM: MCF7, read-out: % Inhibition of STS Activity in Intact MCF-7 Breast Cancer Cells at 10 μM
steroid sulfatase (STS) [6] = biological target: T1, steroid sulfatase (STS); experiment: STS inhibition in placental microsomes; type: biochemical; design: a placental microsomal preparation from a sulfatase-positive human placenta from a normal term pregnancy; from tissue; host or cells: human placenta (microsomal preparation); details: 20 μM E1S; for inhibition at 0.01 µM: 0.01 μM inhibitor; for inhibition at 0.1 µM: 0.1 μM inhibitor; for inhibition at 1 µM: 1 μM inhibitor; for inhibition at 10 µM: 10 μM inhibitor

C[C@]12CC[C@@H]3c4ccc(OS(N)(=O)=O)cc4CC[C@H]3[C@@H]1CCC2=O [compound 1, estrone-3-O-sulfamate]
estrogenicity [1]: highly estrogenic

Cc1cc(=O)oc2cc(OS(N)(=O)=O)ccc12 [compound 3, 4-methylcoumarin-7-O-sulfamate]
estrogenic activity [2]: no rodent estrogenic activity
% Inhibition of STS Activity in Intact MCF-7 Breast Cancer Cells at 0.01 μM (steroid sulfatase (STS) [3]; 0.01 μM inhibitor): <10%
% Inhibition of STS Activity in Intact MCF-7 Breast Cancer Cells at 0.1 μM (steroid sulfatase (STS) [3]; 0.1 μM inhibitor): 43%
% Inhibition of STS Activity in Placental Microsomes at 0.1 μM (steroid sulfatase (STS) [4]): <10%
% Inhibition of STS Activity in Placental Microsomes at 1 μM (steroid sulfatase (STS) [4]): 63%

CCc1cc(=O)oc2cc(OS(N)(=O)=O)ccc12 [compound 4]
% Inhibition of STS Activity in Placental Microsomes at 0.1 μM (steroid sulfatase (STS) [4]): 35%
% Inhibition of STS Activity in Placental Microsomes at 1 μM (steroid sulfatase (STS) [4]): 88%
% Inhibition of STS Activity in Placental Microsomes at 10 μM (steroid sulfatase (STS) [4]): >99%

CCCc1cc(=O)oc2cc(OS(N)(=O)=O)ccc12 [compound 5]
% Inhibition of STS Activity in Placental Microsomes at 0.1 μM (steroid sulfatase (STS) [4]): 42%
% Inhibition of STS Activity in Placental Microsomes at 1 μM (steroid sulfatase (STS) [4]): 94%
% Inhibition of STS Activity in Placental Microsomes at 10 μM (steroid sulfatase (STS) [4]): 96%

CCc1c(C)c2ccc(OS(N)(=O)=O)cc2oc1=O [compound 7]
% Inhibition of STS Activity in Placental Microsomes at 0.1 μM (steroid sulfatase (STS) [4]): 57%
% Inhibition of STS Activity in Placental Microsomes at 1 μM (steroid sulfatase (STS) [4]): 96%
% Inhibition of STS Activity in Placental Microsomes at 10 μM (steroid sulfatase (STS) [4]): >99%

CCCc1c(C)c2ccc(OS(N)(=O)=O)cc2oc1=O [compound 8]
% Inhibition of STS Activity in Placental Microsomes at 0.1 μM (steroid sulfatase (STS) [4]): 83%
% Inhibition of STS Activity in Placental Microsomes at 1 μM (steroid sulfatase (STS) [4]): 97%
% Inhibition of STS Activity in Placental Microsomes at 10 μM (steroid sulfatase (STS) [4]): >99%

NS(=O)(=O)Oc1ccc2c(C3CCCCC3)cc(=O)oc2c1 [compound 26, 4-Cyclohexylcoumarin-7-O-sulfamate]
IC50 (steroid sulfatase (STS) [5]): 24 nM
inhibition at 0.01 µM (steroid sulfatase (STS) [5]): 37%
inhibition at 0.1 µM (steroid sulfatase (STS) [5]): 72%
inhibition at 1 µM (steroid sulfatase (STS) [5]): 80%
inhibition at 10 µM (steroid sulfatase (STS) [5]): 93%
inhibition at 0.01 µM (steroid sulfatase (STS) [6]): 9%
inhibition at 0.1 µM (steroid sulfatase (STS) [6]): 69%
inhibition at 1 µM (steroid sulfatase (STS) [6]): 94%
inhibition at 10 µM (steroid sulfatase (STS) [6]): 99%
IC50 (steroid sulfatase (STS) [6]): 42 nM

CCCCCc1c(C)c2ccc(OS(N)(=O)=O)cc2oc1=O [compound 28, 4-Methyl-3-pentylcoumarin-7-O-sulfamate]
inhibition at 0.1 µM (steroid sulfatase (STS) [5]): 97%
inhibition at 1 µM (steroid sulfatase (STS) [5]): 99%
inhibition at 10 µM (steroid sulfatase (STS) [5]): 100%
inhibition at 0.01 µM (steroid sulfatase (STS) [6]): 41%
inhibition at 0.1 µM (steroid sulfatase (STS) [6]): 94%
inhibition at 1 µM (steroid sulfatase (STS) [6]): 99%
inhibition at 10 µM (steroid sulfatase (STS) [6]): 100%
IC50 (steroid sulfatase (STS) [6]): 12 nM

CCCCCCc1c(C)c2ccc(OS(N)(=O)=O)cc2oc1=O [compound 29, 3-Hexyl-4-methylcoumarin-7-O-sulfamate]
inhibition at 0.1 µM (steroid sulfatase (STS) [5]): 99%
inhibition at 1 µM (steroid sulfatase (STS) [5]): 100%
inhibition at 10 µM (steroid sulfatase (STS) [5]): 100%
inhibition at 0.01 µM (steroid sulfatase (STS) [6]): 13%
inhibition at 0.1 µM (steroid sulfatase (STS) [6]): 88%
inhibition at 1 µM (steroid sulfatase (STS) [6]): 99%
inhibition at 10 µM (steroid sulfatase (STS) [6]): 99%

CCCCCCCc1c(C)c2ccc(OS(N)(=O)=O)cc2oc1=O [compound 30, 3-Heptyl-4-methylcoumarin-7-O-sulfamate]
inhibition at 0.1 µM (steroid sulfatase (STS) [5]): 99%
inhibition at 1 µM (steroid sulfatase (STS) [5]): 100%
inhibition at 10 µM (steroid sulfatase (STS) [5]): 100%
inhibition at 0.01 µM (steroid sulfatase (STS) [6]): 23%
inhibition at 0.1 µM (steroid sulfatase (STS) [6]): 65%
inhibition at 1 µM (steroid sulfatase (STS) [6]): 97%
inhibition at 10 µM (steroid sulfatase (STS) [6]): 99%

CCCCCCCCc1c(C)c2ccc(OS(N)(=O)=O)cc2oc1=O [compound 31, 4-Methyl-3-octylcoumarin-7-O-sulfamate]
inhibition at 0.1 µM (steroid sulfatase (STS) [5]): 99%
inhibition at 1 µM (steroid sulfatase (STS) [5]): 100%
inhibition at 10 µM (steroid sulfatase (STS) [5]): 100%
inhibition at 0.01 µM (steroid sulfatase (STS) [6]): 21%
inhibition at 0.1 µM (steroid sulfatase (STS) [6]): 71%
inhibition at 1 µM (steroid sulfatase (STS) [6]): 98%
inhibition at 10 µM (steroid sulfatase (STS) [6]): 99%

CCCCCCCCCc1c(C)c2ccc(OS(N)(=O)=O)cc2oc1=O [compound 32, 4-Methyl-3-nonylcoumarin-7-O-sulfamate]
IC50 (steroid sulfatase (STS) [5]): ~10 nM
inhibition at 0.01 µM (steroid sulfatase (STS) [5]): 57%
inhibition at 0.1 µM (steroid sulfatase (STS) [5]): 96%
inhibition at 1 µM (steroid sulfatase (STS) [5]): 99%
inhibition at 10 µM (steroid sulfatase (STS) [5]): 99%
inhibition at 0.01 µM (steroid sulfatase (STS) [6]): 21%
inhibition at 0.1 µM (steroid sulfatase (STS) [6]): 85%
inhibition at 1 µM (steroid sulfatase (STS) [6]): 97%
inhibition at 10 µM (steroid sulfatase (STS) [6]): 98%

CCCCCCCCCCc1c(C)c2ccc(OS(N)(=O)=O)cc2oc1=O [compound 33, 3-Decyl-4-methylcoumarin-7-O-sulfamate]
IC50 (steroid sulfatase (STS) [5]): < 10 nM
inhibition at 0.01 µM (steroid sulfatase (STS) [5]): 80%
inhibition at 0.1 µM (steroid sulfatase (STS) [5]): 97%
inhibition at 1 µM (steroid sulfatase (STS) [5]): 99%
inhibition at 10 µM (steroid sulfatase (STS) [5]): 97%
inhibition at 0.01 µM (steroid sulfatase (STS) [6]): 3%
inhibition at 0.1 µM (steroid sulfatase (STS) [6]): 33%
inhibition at 1 µM (steroid sulfatase (STS) [6]): 79%
inhibition at 10 µM (steroid sulfatase (STS) [6]): 94%
IC50 (steroid sulfatase (STS) [6]): 250 nM

Cc1c(-c2ccccc2)c(=O)oc2cc(OS(N)(=O)=O)ccc12 [compound 40, 4-Methyl-3-phenylcoumarin-7-O-sulfamate]
IC50 (steroid sulfatase (STS) [5]): 25 nM
inhibition at 0.01 µM (steroid sulfatase (STS) [5]): 32%
inhibition at 0.1 µM (steroid sulfatase (STS) [5]): 75%
inhibition at 0.01 µM (steroid sulfatase (STS) [6]): 8%
inhibition at 0.1 µM (steroid sulfatase (STS) [6]): 65%
inhibition at 1 µM (steroid sulfatase (STS) [6]): 95%
inhibition at 10 µM (steroid sulfatase (STS) [6]): 99%
IC50 (steroid sulfatase (STS) [6]): 54 nM

Cc1c(Cc2ccccc2)c(=O)oc2cc(OS(N)(=O)=O)ccc12 [compound 41, 3-Benzyl-4-methylcoumarin-7-O-sulfamate]
inhibition at 0.01 µM (steroid sulfatase (STS) [5]): 85%
inhibition at 0.1 µM (steroid sulfatase (STS) [5]): 91%
inhibition at 1 µM (steroid sulfatase (STS) [5]): 94%
inhibition at 10 µM (steroid sulfatase (STS) [5]): 97%
inhibition at 0.01 µM (steroid sulfatase (STS) [6]): 53%
inhibition at 0.1 µM (steroid sulfatase (STS) [6]): 94%
inhibition at 1 µM (steroid sulfatase (STS) [6]): 99%

Cc1c(CCc2ccccc2)c(=O)oc2cc(OS(N)(=O)=O)ccc12 [compound 42, 4-Methyl-3-(2-phenylethyl)coumarin-7-O-sulfamate]
IC50 (steroid sulfatase (STS) [5]): 1.1 nM
inhibition at 0.01 µM (steroid sulfatase (STS) [5]): 93%
inhibition at 0.1 µM (steroid sulfatase (STS) [5]): 98%
inhibition at 1 µM (steroid sulfatase (STS) [5]): 99%
inhibition at 0.01 µM (steroid sulfatase (STS) [6]): 45%
inhibition at 0.1 µM (steroid sulfatase (STS) [6]): 91%
inhibition at 1 µM (steroid sulfatase (STS) [6]): 99%
inhibition at 10 µM (steroid sulfatase (STS) [6]): 100%
IC50 (steroid sulfatase (STS) [6]): 33 nM

Cc1c(CCCc2ccccc2)c(=O)oc2cc(OS(N)(=O)=O)ccc12 [compound 43, 4-Methyl-3-[3-phenylpropyl]coumarin-7-O-sulfamate]
inhibition at 0.1 µM (steroid sulfatase (STS) [5]): 87%
inhibition at 1 µM (steroid sulfatase (STS) [5]): 99%
inhibition at 10 µM (steroid sulfatase (STS) [5]): 100%
inhibition at 0.1 µM (steroid sulfatase (STS) [6]): 47%
inhibition at 1 µM (steroid sulfatase (STS) [6]): 99%
